# Patent publication US9561278B2, “Derivatized hyperbranched polyglycerols” (THE UNIVERSITY OF BRITISH COLUMBIA, priority 2010, dated 2017)
# What was measured:
# [1] = In vitro cisplatin release by dialysis; assay type: physicochemical; settings: PBS, 37° C.
# Experimental: Cisplatin was bound to the carboxylate modified HPGs as described above with final polymer and cisplatin concentrations of 10 and 1 mg/mL, respectively. Into 7000 MWCO Slide-A-Lyzer mini dialysis units (Thermo Scientific, Rockford, Ill.), 20 μL of cisplatin bound polymer solution, or a 1 mg/mL solution of free cisplatin, were added and the samples were dialyzed at 37° C. with stirring against 4 L of 1 mM PBS adjusted to pHs of 4.5, 6.0, and 7.4 or synthetic urine at pH 7.0. Synthetic urine (Surine) was purchased from Dyna-Tek Industries (Lenexa, Kans.). At predetermined time points, three dialysis units were removed from the release media, and the entire contents were removed with three washings of the dialysis unit followed by dilution to 1 mL with fresh release media. The cisplatin concentration of contents of the dialysis units was determined by OPDA colorimetric assay. The cumulative percent drug released was calculated by subtracting the amount of drug remaining from the initial amount of drug in the dialysis bag at the beginning of the experiment. The data were expressed as cumulative percentage of drug released as a function of time.
# [2] = tested on: KU-7-luc bladder cancer cells; assay: Cytotoxicity evaluation, MTS cell proliferation assay; assay type: cell-based; settings: cisplatin concentration
# Experimental: Cytotoxicity studies were performed using the MTS cell proliferation assay (Promega, Madison, Wis.). […] In this study, KU-7-luc bladder cancer cells, kindly provided by Dr. M. Tachibana (Keio University, Tokyo, Japan). The cells were plated at 5000 cells/well into 96-well plates in 180 μL of Dulbecco's modified Eagle (DMEM) medium (Invitrogen Canada, Inc., Burlington, ON) supplemented with 10% fetal bovine serum (FBS) (Invitrogen Canada, Inc., Burlington, ON), 1% penicillin-streptomycin, and 1% L-glutamine and allowed to grow for 24 h at 37° C. in 5% CO2 to reach approximately 80% confluence for cytotoxicity assays. Cells were then incubated for 2 or 72 h with HPGs alone, ranging from 0.01-100 mg/mL, or free cisplatin or cisplatin-loaded HPGs with drug concentrations ranging from 0.01-100 μg/mL. After treatment, the cells were washed twice with Hank's balanced salt solution (HBSS) and 180 μL of fresh culture media was added into each well and cells were allowed to grow for 72 h. Proliferation of these cells was measured using a CellTiter 96 aqueous non-radioactive cell proliferation assay (Promega, Madison, Wis.) as described previously (Mugabe, C.; Hadaschik, B. A.; Kainthan, R. K.; Brooks, D. E.; So, A. I.; Gleave, M. E.; Burt, H. M. BJU Int. 2009, 103, 978-986). […] The absorbance was measured at 490 nm with a reference of 620 nm using a microplate reader.
# [3] = cited from earlier work
SMILES,time to 100% complete release [1] [h],IC50 ([2]; 2 h incubation),IC50 ([2]; 72 h incubation) [µg/mL],aqueous solubility [3] [µg/mL]
"N.N.[Cl][Pt][Cl] [free cisplatin, cisplatin]",≤ 7,approximately 10 μg/mL,1,
"CC(=O)O[C@@]12CO[C@@H]1C[C@H](O)[C@@]1(C)C(=O)[C@H](O)C3=C(C)[C@@H](OC(=O)[C@H](O)[C@@H](NC(=O)OC(C)(C)C)c4ccccc4)C[C@@](O)([C@@H](OC(=O)c4ccccc4)[C@H]21)C3(C)C [DTX, docetaxel]",,,,~7
